ChEMBL document CHEMBL4184243, “Optimization of antimalarial, and anticancer activities of (E)-methyl 2-(7-chloroquinolin-4-ylthio)-3-(4-hydroxyphenyl) acrylate” (Bioorg Med Chem, 2018)

Key:
[1] = tested on: Plasmodium berghei; assay: Antimalarial activity against chloroquine-susceptible Plasmodium berghei ANKA infected in Balb-C mouse assessed as mean survival days at 10 mg/kg, ip administered once daily for 4 days (reference value: 8.4 +/- 0.15 day); type: functional
[2] = tested on: HL-60; assay: Cytotoxicity against human HL60 cells after 24 hrs by MTT assay; type: functional, cell-based; conditions: HL-60, 24 h
[3] = Inhibition of beta-hematin formation assessed as reduction in acetate buffer-initiated hemozoin formation measured after 48 hrs; parameters: concentration or dose not given beside the values; conditions: concentration not given here
[4] = tested on: Lymphocyte; assay: Cytotoxicity against human lymphocytes after 24 to 48 hrs by MTT assay; type: cell-based
[5] = tested on: Jurkat E6.1; assay: Cytotoxicity against human Jurkat E6-1 cells after 24 hrs by MTT assay; type: functional, cell-based; conditions: Jurkat E6.1, 24 h
[6] = tested on: Plasmodium berghei; assay: Antimalarial activity against chloroquine-susceptible Plasmodium berghei ANKA infected in Balb-C mouse assessed as parasitemia at 10 mg/kg, ip administered once daily for 4 days measured post last dose by Giemsa staining based method (reference value: 65.8 +/- 4.38%); type: functional
[7] = Selectivity index, ratio of IC50 for human lymphocytes to IC50 for human Jurkat E6-1 cells; type: toxicity; conditions: human lymphocytes versus Jurkat E6-1 cells, read-out: Ratio IC50
[8] = Selectivity index, ratio of IC50 for human lymphocytes to IC50 for human HL60 cells; type: toxicity; conditions: human lymphocytes versus HL60 cells, read-out: Ratio IC50
[9] = tested on: HL-60; assay: Induction of apoptosis in human HL60 cells assessed as early apoptotic cells at 5 uM after 24 hrs by Annexin-V-FITC/propidium iodide staining based flow cytometric analysis (reference value: 0.36 +/- 0.02 %); type: functional
[10] = tested on: Jurkat E6.1; assay: Induction of apoptosis in human Jurkat E6-1 cells assessed as early apoptotic cells at 5 uM after 24 hrs by Annexin-V-FITC/propidium iodide staining based flow cytometric analysis (reference value: 0.5 +/- 0.07 %); type: functional
[11] = tested on: Jurkat E6.1; assay: Induction of apoptosis in human Jurkat E6-1 cells assessed as necrotic cells at 5 uM after 24 hrs by Annexin-V-FITC/propidium iodide staining based flow cytometric analysis (reference value: 1.26 +/- 0.24 %); type: functional
[12] = tested on: HL-60; assay: Induction of apoptosis in human HL60 cells assessed as necrotic cells at 5 uM after 24 hrs by Annexin-V-FITC/propidium iodide staining based flow cytometric analysis (reference value: 1.96 +/- 0.33 %); type: functional
[13] = tested on: Jurkat E6.1; assay: Induction of apoptosis in human Jurkat E6-1 cells assessed as late apoptotic cells at 5 uM after 24 hrs by Annexin-V-FITC/propidium iodide staining based flow cytometric analysis (reference value: 0.73 +/- 0.14 %); type: functional
[14] = tested on: HL-60; assay: Induction of apoptosis in human HL60 cells assessed as late apoptotic cells at 5 uM after 24 hrs by Annexin-V-FITC/propidium iodide staining based flow cytometric analysis (reference value: 0.85 +/- 0.13 %); type: functional
[15] = tested on: HL-60; assay: Induction of apoptosis in human HL60 cells assessed as late apoptotic cells at 100 uM after 24 hrs by Annexin-V-FITC/propidium iodide staining based flow cytometric analysis (reference value: 0.85 +/- 0.13 %); type: functional
[16] = tested on: Jurkat E6.1; assay: Induction of apoptosis in human Jurkat E6-1 cells assessed as late apoptotic cells at 100 uM after 24 hrs by Annexin-V-FITC/propidium iodide staining based flow cytometric analysis (reference value: 0.73 +/- 0.14 %); type: functional
[17] = tested on: HL-60; assay: Induction of apoptosis in human HL60 cells assessed as necrotic cells at 100 uM after 24 hrs by Annexin-V-FITC/propidium iodide staining based flow cytometric analysis (reference value: 1.96 +/- 0.33 %); type: functional
[18] = tested on: HL-60; assay: Induction of apoptosis in human HL60 cells assessed as early apoptotic cells at 100 uM after 24 hrs by Annexin-V-FITC/propidium iodide staining based flow cytometric analysis (reference value: 0.36 +/- 0.02 %); type: functional
[19] = tested on: Jurkat E6.1; assay: Induction of apoptosis in human Jurkat E6-1 cells assessed as necrotic cells at 100 uM after 24 hrs by Annexin-V-FITC/propidium iodide staining based flow cytometric analysis (reference value: 1.26 +/- 0.24 %); type: functional
[20] = tested on: Jurkat E6.1; assay: Induction of apoptosis in human Jurkat E6-1 cells assessed as early apoptotic cells at 100 uM after 24 hrs by Annexin-V-FITC/propidium iodide staining based flow cytometric analysis (reference value: 0.5 +/- 0.07 %); type: functional
[21] = tested on: Jurkat; assay: Cytotoxicity against human Jurkat cells after 20 hrs by propidium iodide staining based flow cytometry; type: functional, cell-based
[22] = tested on: HL-60; assay: Induction of apoptosis in human HL60 cells assessed as early apoptotic cells at 1 uM after 24 hrs by Annexin-V-FITC/propidium iodide staining based flow cytometric analysis (reference value: 0.36 +/- 0.02 %); type: functional
[23] = tested on: Jurkat E6.1; assay: Induction of apoptosis in human Jurkat E6-1 cells assessed as necrotic cells at 1 uM after 24 hrs by Annexin-V-FITC/propidium iodide staining based flow cytometric analysis (reference value: 1.26 +/- 0.24 %); type: functional
[24] = tested on: HL-60; assay: Induction of apoptosis in human HL60 cells assessed as late apoptotic cells at 1 uM after 24 hrs by Annexin-V-FITC/propidium iodide staining based flow cytometric analysis (reference value: 0.85 +/- 0.13 %); type: functional
[25] = tested on: Jurkat E6.1; assay: Induction of apoptosis in human Jurkat E6-1 cells assessed as late apoptotic cells at 1 uM after 24 hrs by Annexin-V-FITC/propidium iodide staining based flow cytometric analysis (reference value: 0.73 +/- 0.14 %); type: functional
[26] = tested on: Jurkat E6.1; assay: Induction of apoptosis in human Jurkat E6-1 cells assessed as early apoptotic cells at 1 uM after 24 hrs by Annexin-V-FITC/propidium iodide staining based flow cytometric analysis (reference value: 0.5 +/- 0.07 %); type: functional
[27] = tested on: HL-60; assay: Induction of apoptosis in human HL60 cells assessed as necrotic cells at 1 uM after 24 hrs by Annexin-V-FITC/propidium iodide staining based flow cytometric analysis (reference value: 1.96 +/- 0.33 %); type: functional
[28] = tested on: HL-60; assay: Induction of apoptosis in human HL60 cells assessed as early apoptotic cells at 50 uM after 24 hrs by Annexin-V-FITC/propidium iodide staining based flow cytometric analysis (reference value: 0.36 +/- 0.02 %); type: functional
[29] = tested on: Jurkat E6.1; assay: Induction of apoptosis in human Jurkat E6-1 cells assessed as necrotic cells at 50 uM after 24 hrs by Annexin-V-FITC/propidium iodide staining based flow cytometric analysis (reference value: 1.26 +/- 0.24 %); type: functional
[30] = tested on: Jurkat E6.1; assay: Induction of apoptosis in human Jurkat E6-1 cells assessed as late apoptotic cells at 50 uM after 24 hrs by Annexin-V-FITC/propidium iodide staining based flow cytometric analysis (reference value: 0.73 +/- 0.14 %); type: functional
[31] = tested on: Jurkat E6.1; assay: Induction of apoptosis in human Jurkat E6-1 cells assessed as early apoptotic cells at 50 uM after 24 hrs by Annexin-V-FITC/propidium iodide staining based flow cytometric analysis (reference value: 0.5 +/- 0.07 %); type: functional
[32] = tested on: HL-60; assay: Induction of apoptosis in human HL60 cells assessed as late apoptotic cells at 50 uM after 24 hrs by Annexin-V-FITC/propidium iodide staining based flow cytometric analysis (reference value: 0.85 +/- 0.13 %); type: functional
[33] = tested on: HL-60; assay: Induction of apoptosis in human HL60 cells assessed as necrotic cells at 50 uM after 24 hrs by Annexin-V-FITC/propidium iodide staining based flow cytometric analysis (reference value: 1.96 +/- 0.33 %); type: functional

Compound | inhibition [3] [%] | MSD [1] [days] | IC50 [2] [µM] | IC50 [4] [µM] | IC50 [5] [µM] | Activity [6] [%] | selectivity ratio [7] | selectivity ratio [8] | also measured
COC(=O)/C(=C\c1ccc(OC(=O)c2c(OC)cccc2OC)cc1)Sc1ccnc2cc(Cl)ccc12 | 92.7 | 23 | 37.2 | > 100 | 37.5 | 2.6 | – | – | –
COC(=O)/C(=C\c1ccc(OC(=O)c2ccc(OC)c(OC)c2)cc1)Sc1ccnc2cc(Cl)ccc12 | 12.7 | – | 5.29 | 51.1 | 8.29 | – | 6.16 | 9.66 | Activity [9]: 0.33%; Activity [10]: 0.76%; Activity [11]: 21.5%; Activity [12]: 40.2%; Activity [13]: 13.5%; Activity [14]: 2.15%
COC(=O)/C(=C\c1ccc(OC(=O)c2cc(OC)cc(OC)c2OC)cc1)Sc1ccnc2cc(Cl)ccc12 | 47.7 | – | 10.7 | 74 | 15.6 | – | 4.74 | 6.91 | –
CCN(CC)CCCC(C)Nc1ccnc2cc(Cl)ccc12 (stereo unspecified) [CHLOROQUINE] | 98.5 | 29.98 | > 100 | > 100 | 83.6 | 0.8 | – | – | Activity [15]: 2.14%; Activity [16]: 7.85%; Activity [17]: 23.6%; Activity [18]: 0.66%; Activity [19]: 23.7%; Activity [20]: 1.4%; IC50 [21]: 95 µM
COC(=O)/C(=C\c1ccc(OC(=O)c2cccc(OC)c2)cc1)Sc1ccnc2cc(Cl)ccc12 | 87.1 | 27.16 | 25.5 | > 100 | 33.2 | 1.5 | – | – | –
COc1cccc2c1C(=O)c1c(O)c3c(c(O)c1C2=O)C[C@@](O)(C(=O)CO)C[C@@H]3O[C@H]1C[C@H](N)[C@H](O)[C@H](C)O1 [DOXORUBICIN] | – | – | 1.6 | 4.36 | 1.03 | – | – | – | Activity [22]: 1.91%; Activity [23]: 32.6%; Activity [24]: 20.8%; Activity [25]: 19.8%; Activity [26]: 0.89%; Activity [27]: 30.2%
O=c1c(O)c(-c2ccc(O)c(O)c2)oc2cc(O)cc(O)c12 [QUERCETIN] | – | – | – | – | – | – | – | – | Activity [28]: 0.46%; Activity [29]: 31.9%; Activity [30]: 9.51%; Activity [31]: 0.64%; Activity [32]: 3.07%; Activity [33]: 31%
O=[As][As+](=O)[O-] (stereo unspecified) [ARSENIC TRIOXIDE] | – | – | 4.97 | 15.3 | 7.32 | – | 2.09 | 3.07 | –
COC(=O)/C(=C\c1ccc(O)cc1)Sc1ccnc2cc(Cl)ccc12 | 72.4 | 24.8 | 4.31 | 33.7 | 5.18 | 1.4 | 6.51 | 7.82 | Activity [9]: 0.74 - 0.75%; Activity [10]: 0.45%; Activity [11]: 38.8%; Activity [12]: 45%; Activity [13]: 2.12%; Activity [14]: 3.15%
COC(=O)/C(=C\c1ccc(OC(=O)c2ccccc2OC)cc1)Sc1ccnc2cc(Cl)ccc12 | 94.6 | 28.83 | 44.5 | > 100 | 44.6 | 1.2 | – | – | –
COC(=O)/C(=C\c1ccc(OC(=O)c2cc(OC)cc(OC)c2)cc1)Sc1ccnc2cc(Cl)ccc12 | 85.6 | 28.5 | 19 | 84.1 | 28.9 | 1.4 | 2.92 | 4.42 | –

More lines, main results first:

inhibition [3] [%] | Compound | MSD [1] [days] | IC50 [2] [µM] | IC50 [4] [µM] | IC50 [5] [µM] | Activity [6] [%] | selectivity ratio [7] | selectivity ratio [8] | also measured
23 | COC(=O)/C(=C\c1ccc(OC(=O)c2cc(OCc3ccccc3)c(OCc3ccccc3)c(OCc3ccccc3)c2)cc1)Sc1ccnc2cc(Cl)ccc12 | – | > 100 | > 100 | > 100 | – | – | – | –
38.6 | COC(=O)/C(=C\c1ccc(OC(=O)c2cccc(OC)c2OC)cc1)Sc1ccnc2cc(Cl)ccc12 | – | 13 | 86.6 | 25.8 | – | 3.36 | 6.66 | –
39.6 | COC(=O)/C(=C\c1ccc(OC(=O)c2cc(OC)c(OC)cc2OC)cc1)Sc1ccnc2cc(Cl)ccc12 | – | 6.26 | 52.5 | 9.65 | – | 5.44 | 8.34 | Activity [9]: 0.61%; Activity [10]: 0.85%; Activity [11]: 21.4%; Activity [12]: 29.5%; Activity [13]: 3.17%; Activity [14]: 4.21%
49.2 | COC(=O)/C(=C\c1ccc(OC(=O)c2ccc(OC)cc2OC)cc1)Sc1ccnc2cc(Cl)ccc12 | – | 7.64 | 41.6 | 10.2 | – | 4.09 | 5.45 | –
12.2 | COC(=O)/C(=C\c1ccc(OC(=O)c2ccc(OC)cc2)cc1)Sc1ccnc2cc(Cl)ccc12 | – | 9.09 | 63.5 | 11 | – | 5.77 | 6.99 | –
2.48 | COC(=O)/C(=C\c1ccc(OC(=O)c2cc(OC)c(OC)c(OC)c2)cc1)Sc1ccnc2cc(Cl)ccc12 | – | 4.24 | 35.2 | 4.57 | – | 7.7 | 8.3 | Activity [9]: 0.75%; Activity [10]: 2.41%; Activity [11]: 35.6%; Activity [12]: 45.8%; Activity [13]: 10.3%; Activity [14]: 11.3%
33.6 | COC(=O)/C(=C\c1ccc(OC(=O)c2ccccc2)cc1)Sc1ccnc2cc(Cl)ccc12 | – | 30.2 | > 100 | 35.7 | – | – | – | –
